Each structure is given as a SMILES string.

Type in all cases: cell-based
Experiment [1] deals with PC-3. Description: Growth inhibition assay (MTS/PMS) with DFMO, PC-3. Particulars: in the presence of DFMO (1-5 mM), 1 mM AG, 0.5 μM SPD, six days; repeat determinations; read-out: Cell Line EC50 PC-3. The protocol:
(§1) Medias were obtained from Mediatech, Inc. (Herdon, Va.) and serums from Gibco BRL (Gaithersburg, Md.). 50 U/ml penicillin, 50 μg/ml streptomycin and 2 mM L-glutamine (all from Bio Whittaker, Walkersville, Md.) were included in all cultures. […] When cells were cultured with polyamines or ORI compounds, 1 mM aminoguanidine (AG; Sigma) was included to inhibit serum amine oxidase activity.

The test system of experiment [2] is A375. Put plainly: Growth inhibition assay, PA alone, A375. Particulars: PA alone (no DFMO), six days; repeat determinations; read-out: Cell Line IC50 A375. Here is the method: as §1
The test system of experiment [3] is SK-OV-3. Put plainly: Growth inhibition assay, PA alone, SK-OV-3. Particulars: PA alone (no DFMO), six days; repeat determinations; read-out: Cell Line IC50 SK-OV-3. Here is the method: as §1
Experiment [4] concerns MDA-MB-231. Description: Growth inhibition assay, PA alone, MDA-MB-231. The following applies: PA alone (no DFMO), six days; repeat determinations; read-out: Cell Line IC50 MDA-MB-231. Here is the method:
as §1

Experiment [5] has as its system SK-OV-3. Put plainly: Growth inhibition assay (MTS/PMS) with DFMO, SK-OV-3. Particulars: in the presence of DFMO (1-5 mM), 1 mM AG, 0.5 μM SPD, six days; repeat determinations; read-out: Cell Line EC50 SK-OV-3. Here is the method: as §1
In experiment [6] the test system is A375. Description: Growth inhibition assay (MTS/PMS) with DFMO, A375. Particulars: in the presence of DFMO (1-5 mM), 1 mM AG, 0.5 μM SPD, six days; repeat determinations; read-out: Cell Line EC50 A375. The protocol:
as §1

In experiment [7] the test system is 4 cell lines (A375, MDA-MB-231, PC-3, SK-OV-3). Put plainly: Growth inhibition with DFMO, average over 4 cell lines. Particulars: Table 3; average over cell lines, with DFMO; read-out: AVG. EC50.
Experiment [8] concerns PC-3. Put plainly: Growth inhibition assay, PA alone, PC-3. The following applies: PA alone (no DFMO), six days; repeat determinations; read-out: Cell Line IC50 PC-3. The protocol: as §1
In experiment [9] the test system is MDA-MB-231. Put plainly: Growth inhibition assay (MTS/PMS) with DFMO, MDA-MB-231. The following applies: in the presence of DFMO (1-5 mM), 1 mM AG, 0.5 μM SPD, six days; repeat determinations; read-out: Cell Line EC50 MDA-MB-231. The protocol: as §1

Turning to `CN(C)c1cccc2c(S(=O)(=O)NCCCC[C@H](N)C(=O)NCCCNCCCCNCCCN)cccc12` [IIA20], the EC50 – broadly, the concentration at which the effect is half-maximal – in the experiment on PC-3 [1] turned out to be 463 nM; in the experiment with SK-OV-3 [5], 2650 nM; in the experiment on A375 [6], 405 nM; in [7] it was 1280 nM; in the experiment on MDA-MB-231 [9] it was 1610 nM. The half-maximal inhibitory concentration (IC50) in the experiment on A375 [2], in the experiment with SK-OV-3 [3], with MDA-MB-231 [4] and with PC-3 [8] was more than 30 µM in each case.
Consider `CCS(=O)(=O)N[C@@H](CCCCN)C(=O)NCCCNCCCCNCCCN` [IID2], for which the EC50 (with PC-3 [1]; with SK-OV-3 [5]; in the experiment with A375 [6]; in experiment [7]; in the experiment on MDA-MB-231 [9]) was more than 30000 nM throughout. Moreover, the half-inhibitory concentration (IC50) in the experiment with A375 [2], with SK-OV-3 [3], with MDA-MB-231 [4] and in the experiment with PC-3 [8] was more than 30 µM each time.
With `Cc1cc(C)c(S(=O)(=O)NC(CCCCN)C(=O)NCCCNCCCCNCCCN)c(C)c1` (stereo not drawn) [IID17], the half-maximal effective concentration (EC50) was found to be 4090 nM in the experiment with PC-3 [1]; 23900 nM in the experiment on SK-OV-3 [5]; 5870 nM in the experiment on A375 [6]; 9740 nM in experiment [7]; 5100 nM in the experiment on MDA-MB-231 [9]. For the same compound, the IC50 in the experiment with A375 [2], with SK-OV-3 [3], with MDA-MB-231 [4] and in the experiment with PC-3 [8] was more than 30 µM in each case.
As for `CCCCCCCC/C=C\CCCCCCCC(=O)NCCCC[C@H](N)C(=O)NCCCNCCCCNCCCN` [IIIA1], the EC50 in the experiment on PC-3 [1] was 386 nM; with SK-OV-3 [5], 398 nM; in the experiment on A375 [6], 76 nM; in experiment [7], 264 nM; in the experiment with MDA-MB-231 [9], 197 nM. In addition, the half-inhibitory concentration (IC50) in the experiment with A375 [2], with SK-OV-3 [3], in the experiment on MDA-MB-231 [4] and with PC-3 [8] was more than 30 µM each time.
As for `CCCCCCCC/C=C/CCCCCCCC(=O)NCCCC[C@H](N)C(=O)NCCCNCCCCNCCCN` [IIIA2], the concentration giving a half-maximal response (EC50) worked out at 22 nM with PC-3 [1]; 76 nM in the experiment with SK-OV-3 [5]; 10 nM in the experiment with A375 [6]; 34 nM in [7]; 29 nM in the experiment on MDA-MB-231 [9]. Further, the half-inhibitory concentration (IC50) in the experiment with A375 [2], with SK-OV-3 [3], in the experiment on MDA-MB-231 [4] and in the experiment on PC-3 [8] was more than 30 µM in each case.
Take `CCCCC/C=C/C/C=C/CCCCCCCC(=O)NCCCC[C@H](N)C(=O)NCCCNCCCCNCCCN` [IIIA6]: the concentration giving a half-maximal response (EC50) with PC-3 [1] came out at 60 nM; in the experiment with SK-OV-3 [5] it was 95 nM; in the experiment on A375 [6] it was 18 nM; in [7] it was 55 nM; with MDA-MB-231 [9], 47 nM. The IC50 (as a rule, the midpoint of a concentration-inhibition curve) is 22.3 µM in the experiment with A375 [2], more than 30 µM with SK-OV-3 [3], more than 30 µM with MDA-MB-231 [4] and 25.8 µM in the experiment on PC-3 [8].
On to `C[C@H](CCC(=O)NCCCC[C@H](N)C(=O)NCCCNCCCCNCCCN)[C@H]1CC[C@H]2[C@@H]3[C@H](O)C[C@@H]4C[C@H](O)CC[C@]4(C)[C@H]3C[C@H](O)[C@]12C` [IIIA7], for which the EC50 with PC-3 [1] is 255 nM; in the experiment on SK-OV-3 [5] it was 2940 nM; in the experiment with A375 [6], 87 nM; in experiment [7], 874 nM; with MDA-MB-231 [9], 215 nM. In addition, the concentration for half-maximal inhibition (IC50) in the experiment on A375 [2], in the experiment with SK-OV-3 [3], with MDA-MB-231 [4] and in the experiment with PC-3 [8] was more than 3 µM each time.
For the compound `CCCCCCCNCCCC[C@H](N)C(=O)NCCCNCCCCNCCCN` [IVA6], the EC50 in the experiment with PC-3 [1] came to 290 nM; in the experiment on SK-OV-3 [5] it was 240 nM; with A375 [6] it was 540 nM; in experiment [7] it was 395 nM; in the experiment with MDA-MB-231 [9], 510 nM. Besides, the 50% inhibitory concentration (IC50) in the experiment on A375 [2], in the experiment on SK-OV-3 [3], in the experiment with MDA-MB-231 [4] and with PC-3 [8] was more than 100 µM in each case.
In the case of `CCCCCCCCCCCCCCCCNCCCC[C@H](N)C(=O)NCCCNCCCCNCCCN` [IVA11], the EC50 with PC-3 [1] came to 46 nM; with SK-OV-3 [5], 81 nM; in the experiment with A375 [6], 10 nM; in experiment [7], 39 nM; with MDA-MB-231 [9] it was 19 nM. Also, the IC50 with A375 [2], with SK-OV-3 [3], with MDA-MB-231 [4] and in the experiment with PC-3 [8] was more than 3 µM each time.

The record behind these values is USRE43327E1, “Hydrophobic polyamine analogs and methods for their use” (Aminex Therapeutics, Inc., priority 2001, dated 2012).
